Legend:
DgcB (Bd0742) = target: T1, DgcB (Bd0742) (Bdellovibrio bacteriovorus, UniProt Q6MPU8); assay: diguanylyl cyclase assay, HPLC; format: biochemical; settings: MBP-DgcB; activity only after about 30 min incubation at 37°C
T1 construct: MBP fusion, expressed in and purified from E. coli; MBP kept; copurifies with c-di-GMP
T1 sequence (Q6MPU8 1-320): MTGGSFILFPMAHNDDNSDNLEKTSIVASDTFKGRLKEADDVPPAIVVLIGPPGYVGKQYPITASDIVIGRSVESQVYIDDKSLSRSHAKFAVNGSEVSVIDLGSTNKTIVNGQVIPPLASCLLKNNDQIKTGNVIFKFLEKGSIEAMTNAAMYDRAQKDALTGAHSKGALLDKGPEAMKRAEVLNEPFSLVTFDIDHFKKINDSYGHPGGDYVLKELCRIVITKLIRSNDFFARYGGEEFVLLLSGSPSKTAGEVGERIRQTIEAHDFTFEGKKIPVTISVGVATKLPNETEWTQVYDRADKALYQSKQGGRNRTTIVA

DgcA (Bd0367) = target: T2, DgcA (Bd0367) (Bdellovibrio bacteriovorus, UniProt Q6MQU2); assay: diguanylyl cyclase assay, HPLC; format: biochemical; settings: MBP-DgcA
T2 construct: gene pleD; MBP fusion, expressed in and purified from E. coli; MBP kept
T2 sequence (Q6MQU2 1-343): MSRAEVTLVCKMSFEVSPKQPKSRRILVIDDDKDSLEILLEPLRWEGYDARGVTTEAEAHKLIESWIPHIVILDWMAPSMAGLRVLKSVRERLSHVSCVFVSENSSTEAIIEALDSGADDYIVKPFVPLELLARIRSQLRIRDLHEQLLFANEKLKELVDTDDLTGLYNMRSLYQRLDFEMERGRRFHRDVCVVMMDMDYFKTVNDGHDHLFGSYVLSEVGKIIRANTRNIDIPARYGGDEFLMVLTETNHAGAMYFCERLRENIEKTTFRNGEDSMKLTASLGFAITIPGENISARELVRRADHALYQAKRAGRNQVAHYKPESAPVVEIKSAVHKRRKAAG

DgcC (Bd1434) = target: T3, DgcC (Bd1434) (Bdellovibrio bacteriovorus, UniProt Q6MN29); assay: diguanylyl cyclase assay, HPLC; format: biochemical; settings: MBP-DgcC
T3 construct: MBP fusion, expressed in and purified from E. coli; MBP kept; natural GGEEF motif
T3 sequence (Q6MN29 1-408): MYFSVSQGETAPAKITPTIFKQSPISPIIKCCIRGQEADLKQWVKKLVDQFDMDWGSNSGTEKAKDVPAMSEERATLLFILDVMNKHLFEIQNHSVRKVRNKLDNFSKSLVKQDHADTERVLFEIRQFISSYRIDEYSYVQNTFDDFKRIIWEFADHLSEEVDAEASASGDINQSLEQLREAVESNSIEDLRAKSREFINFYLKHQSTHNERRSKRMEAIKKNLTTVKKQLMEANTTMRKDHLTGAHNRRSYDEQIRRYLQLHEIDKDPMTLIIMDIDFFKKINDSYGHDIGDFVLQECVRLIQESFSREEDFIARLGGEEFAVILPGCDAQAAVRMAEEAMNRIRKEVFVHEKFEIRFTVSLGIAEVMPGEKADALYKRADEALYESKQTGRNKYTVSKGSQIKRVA

CdgA (Bd3125) = target: T4, CdgA (Bd3125) (Bdellovibrio bacteriovorus, UniProt Q6MIM9); assay: equilibrium dialysis; format: binding; settings: read-out: apparent Kd
T4 construct: MBP fusion, expressed in and purified from E. coli; MBP kept; degenerate GVNEF motif is natural
T4 sequence (Q6MIM9 1-496): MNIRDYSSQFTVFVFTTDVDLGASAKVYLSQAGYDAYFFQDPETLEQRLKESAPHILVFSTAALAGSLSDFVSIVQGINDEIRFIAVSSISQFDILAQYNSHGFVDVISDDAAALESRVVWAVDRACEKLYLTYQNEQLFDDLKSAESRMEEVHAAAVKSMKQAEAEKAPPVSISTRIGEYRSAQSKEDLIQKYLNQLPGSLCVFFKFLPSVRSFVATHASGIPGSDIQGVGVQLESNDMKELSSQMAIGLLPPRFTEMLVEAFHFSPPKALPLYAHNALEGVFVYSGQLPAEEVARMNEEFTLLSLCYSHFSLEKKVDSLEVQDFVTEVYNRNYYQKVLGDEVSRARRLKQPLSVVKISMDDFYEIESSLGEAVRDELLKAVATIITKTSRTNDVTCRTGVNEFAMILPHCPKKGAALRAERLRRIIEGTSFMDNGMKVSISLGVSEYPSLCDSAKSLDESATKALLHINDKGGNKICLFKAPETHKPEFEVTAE

Kd (CdgA (Bd3125)) [nM]	SMILES	diguanylyl cyclase assay, HPLC (DgcB (Bd0742))	diguanylyl cyclase assay, HPLC (DgcA (Bd0367))	diguanylyl cyclase assay, HPLC (DgcC (Bd1434))	diguanylyl cyclase assay, HPLC (DgcA (Bd0367); from GTP)	diguanylyl cyclase assay, HPLC (DgcC (Bd1434); from GTP)
–	Nc1nc2c(ncn2[C@@H]2O[C@H](COP(=O)(O)OP(=O)(O)OP(=O)(O)O)[C@@H](O)[C@H]2O)c(=O)[nH]1 [GTP]	DgcA, DgcB and DgcC proved to function as diguanylyl cyclases (Figure 1A–C)	DgcA, DgcB and DgcC proved to function as diguanylyl cyclases (Figure 1A–C)	DgcA, DgcB and DgcC proved to function as diguanylyl cyclases (Figure 1A–C)	–	–
~2000	Nc1nc2c(ncn2[C@@H]2O[C@@H]3COP(=O)(O)O[C@H]4[C@@H](O)[C@H](n5cnc6c(=O)[nH]c(N)nc65)O[C@@H]4COP(=O)(O)O[C@H]3[C@H]2O)c(=O)[nH]1 [c-di-GMP]	–	–	–	HPLC profiles show peaks of c-di-GMP (product) and GTP (substrate)	HPLC profiles show peaks of c-di-GMP (product) and GTP (substrate)

Reference: publication PMC3271064, “Discrete Cyclic di-GMP-Dependent Control of Bacterial Predation versus Axenic Growth in Bdellovibrio bacteriovorus” (PLoS Pathogens, 2012)
